Where only a bound is given, the exact number is not on record here.

Data set [1] addresses human serum albumin (HSA) (Homo sapiens, UniProt P02768). Further details: method as in PMID 38770220. The following applies: ELISA, Figure S1; stated as previously reported value; read-out: dissociation constant (Kd) to HSA; cited from earlier work. Background: In an ELISA, binding on a coated surface is turned into a signal by an enzyme label.
Data set [2] in a line: MTT cytotoxicity assay. The settings on record: human, MDA-MB-231 cells (human breast adenocarcinoma). For orientation: Tetrazolium dyes change colour on reduction, which living cells bring about.
Description: (§1) Human lung carcinoma (A549), mouse melanoma (B16), mouse colon carcinoma (CT26), human breast adenocarcinoma (MDA-MB-231), and human glioblastoma (U87MG) cell lines were maintained in Roswell Park Memorial Institute (RPMI)-1640 medium (Fujifilm Wako Pure Chemicals Co., Ltd., Japan) supplemented with 10% heat-inactivated fetal bovine serum (Thermo Fisher Scientific, Inc.) and 1% penicillin/streptomycin (final concentrations: 100 units/mL penicillin G and 10 μg/mL streptomycin; Thermo Fisher Scientific, Inc.). The cells were cultured at 37 °C in a humidified incubator with 5% CO2. For experiments, A549, B16, CT26, MDA-MB-231, and U87MG cells were seeded into 96-well plates at a density of 1000 cells per well. […] Following treatment, 0.5 mg/mL 3-(4,5-dimethylthiazol-2-yl)-2,5-diphenyltetrazolium bromide (MTT; Tokyo Chemical Industry Co., Ltd., Japan) was added to each well, and the plates were incubated for 4 h at 37 °C. After incubation, the medium was carefully removed, and the resulting MTT formazan product was dissolved in 100 μL of dimethyl sulfoxide (DMSO). The absorbance of the solution was measured at 590 nm using a microplate reader. The half-maximal inhibitory concentration (IC50) for each compound was calculated from semilogarithmic dose–response curves.
Data set [3] can be described thus: MTT cytotoxicity assay. The settings on record: human, A549 cells (human lung carcinoma).
Description: as §1
Another data set deals with CT26 cells. Description: Biotin competition cellular uptake assay. Format: cell-based, mouse. The following applies: CT26, biotin 772 μM to 3.09 mM, 24 h. On the procedure: Figure 3 (A) Time-course evaluation of cellular uptake for BBC-IP, BBC, and BPA in A549, B16, CT26, MDA-MB-231, and U87MG cells. Compounds were incubated for 2.5, 6, and 24 h in cells, and boron concentration was measured using inductively coupled plasma optical emission spectroscopy (ICP-OES) after ashing with conc. HNO3. Data are shown as the mean ± SEM from a single experiment conducted in triplicate. (B) Biotin concentration-dependent cell uptake study of BBC-IP, BBC and BPA in CT26 cells. Boron concentration was determined after incubation with compounds at various concentrations of biotin for 24 h. (C) Intracellular distribution of BBC-IP in CT26 cells. Cells were incubated with BBC-IP (ca. 25 μg [B]/mL) for 3 h, followed by […] using an anti-closo-dodecaborate antibody and lysosomal staining with Lysotracker. Red: lysosomes stained with LysoTracker Red DND-99; Green: BBC-IP localization; Blue: nuclei stained with DAPI. Scale bars: 25 μm. (D) Intracellular distribution of BPA in CT26 cell lines. Cells were incubated with BPA (ca. 25 μg [B]/mL) for 3 h, followed by fluorescent modification with a boron sensor,[24] nucleus staining with NucleoSeeing and lysosomal staining with a lysotracker. […] The cells were incubated for another 24 h, harvested using a cell scraper, and counted. […]

Data set [4] can be described thus: MTT cytotoxicity assay. The settings on record: mouse, B16 cells (mouse melanoma).
Description: as §1
The subject of a further data set is CT26 tumor-bearing mice. Description: BNCT efficacy in CT26 tumor-bearing mice. Format: in vivo, mouse. The following applies: i.v. 15 mg [10B]/kg, neutron irradiation 3 h later. The protocol: Figure 4 (A–D) Biodistribution of boron in the CT26-bearing mice at 3, 6, and 12 h post- intravenous injection of (A) BBC-IP, (B) BBC, (C) BBC-IP-HSA and (D) BPA at the dose of 15 mg [B]/kg. The data are shown as mean ± SEM (n = 3–4). (E, F) BNCT of the CT26 tumor-bearing mice intravenously injected with 15 mg [^10B]/kg of BBC-IP-HSA and BPA. (E) The tumor volume curves after thermal neutron irradiation (also see Figure S5, Supporting Information). (F) Mice body weight corresponding to the treatments in panel (E). Results are shown as the mean ± SEM (n = 5 for the groups with BBC-IP-HSA, BPA and no treatment, n = 4 for the groups with neutron only). The two-sided Student’s t-test was applied to determine statistical significance, defined as *p < 0.05, **p < 0.0001.
CT26 tumor-bearing mice were prepared by subcutaneously injecting a suspension of CT26 cells (8.0 × 10^5 cells/mouse) into the right thigh. […] The BNCT effects were assessed based on tumor volume changes. Tumor volume was calculated using the formula 0.5 × (A × B^2), where A and B represent the longest and shortest tumor diameters in millimeters, respectively. […]
(B) Body weight of the same mice treated in panel A. (C) The tumor volume curves of the individual mice after irradiation with thermal neutron. […] Significance was determined as: *p < 0.05, **p < 0.0001 using the two-sided […]

The nature of data set [5]: MTT cytotoxicity assay. The following applies: mouse, CT26 cells (mouse colon carcinoma).
Description: as §1
The nature of data set [6]: MTT cytotoxicity assay. The following applies: human, U87MG cells (human glioblastoma).
Description: as §1
For data set [7], the system named is A549 (human lung carcinoma) cells.
Description: as §1
The test system of data set [8] is CT26 (mouse colon carcinoma) cells.
Description: as §1
For data set [9], the system named is MDA-MB-231 (human breast adenocarcinoma) cells.
Description: as §1
For data set [10], the system named is B16 (mouse melanoma) cells.
Description: as §1
Data set [11] concerns U87MG (human glioblastoma) cells.
Description: as §1
For data set [12] the following is noted: stated in Introduction without reference; cited from earlier work.

Chain of human serum albumin (HSA) (P02768 25-609): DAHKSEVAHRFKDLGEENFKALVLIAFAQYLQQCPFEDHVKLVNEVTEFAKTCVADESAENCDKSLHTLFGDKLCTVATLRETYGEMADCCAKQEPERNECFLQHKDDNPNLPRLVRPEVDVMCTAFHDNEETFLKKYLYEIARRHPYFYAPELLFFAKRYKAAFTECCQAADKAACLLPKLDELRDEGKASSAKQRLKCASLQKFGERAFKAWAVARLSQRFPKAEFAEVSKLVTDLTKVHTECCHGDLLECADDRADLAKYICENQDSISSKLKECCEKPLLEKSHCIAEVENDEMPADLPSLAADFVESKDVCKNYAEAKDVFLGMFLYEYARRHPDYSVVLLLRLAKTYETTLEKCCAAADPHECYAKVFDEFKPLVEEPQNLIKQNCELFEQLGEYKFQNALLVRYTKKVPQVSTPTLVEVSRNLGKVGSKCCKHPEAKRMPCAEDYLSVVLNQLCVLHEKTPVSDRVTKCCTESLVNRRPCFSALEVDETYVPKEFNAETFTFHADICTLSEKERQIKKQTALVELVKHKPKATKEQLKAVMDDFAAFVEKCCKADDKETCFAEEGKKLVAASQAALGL

The Kd is the equilibrium constant for the complex coming apart. As to “pteroyl-closo-dodecaborate conjugated with a 4-(p-iodophenyl)butyric acid moiety [PBC-IP]”, the dissociation constant (Kd) in [1] was 11.7 ± 0.8 µM.
The IC50 is the concentration at which inhibition is half-maximal. A higher IC50 goes with weaker potency. Turning to `N[C@@H](Cc1ccc(B(O)O)cc1)C(=O)O` [BPA, 4-borono-L-phenylalanine, reference compound], the IC50 at 72 h is more than 1000 µM in “MTT cytotoxicity assay [2]”; more than 1000 µM in the data set “MTT cytotoxicity assay [3]”; 910 ± 130 µM in “MTT cytotoxicity assay [4]”; more than 1000 µM in the data set “MTT cytotoxicity assay [5]”; more than 1000 µM in “MTT cytotoxicity assay [6]”. In the data set on CT26 cells, the “decrease of accumulation under biotin competitive conditions (up to)” value was “largely unaffected”. In the data set with CT26 tumor-bearing mice (20-day monitoring), the “antitumor efficacy / tumor growth compared between agents” value was “significantly higher antitumor efficacy than BBC-IP-HSA”. Also, the “tumor suppression versus neutron-only group” value in the data set with CT26 tumor-bearing mice (20 days after irradiation) is “significantly greater tumor suppression compared to the neutron-only group”.
As to “biotin-closo-dodecaborate conjugate [BBC]”, the 50% inhibitory concentration (IC50) in data set [7], in [8], in data set [9], in data set [10] and in data set [11] was more than 1000 µM throughout. Besides, the “decrease of accumulation under biotin competitive conditions (up to)” value in the data set on CT26 cells is recorded as approximately 20%.
For `O=C(O)CCCC[C@@H]1SC[C@@H]2NC(=O)N[C@@H]21` [biotin], the water solubility entry in data set [12] is given as “approximately 0.9 mM”.

These data come from paper PMC11696430, “A Water-Soluble Small Molecule Boron Carrier Targeting Biotin Receptors for Neutron Capture Therapy” (ACS Omega, 2024).
